From patent US9776992B2, “1-oxo-1,2-dihydroisoquinolin-7-yl-(5-substituted-thiophen-2-yl)-sulfonamide compounds, formulations containing those compounds, and their use as AICARFT inhibitors in the treatment of cancers” (Eli Lilly and Company, priority 2014, dated 2017)

Tests used:
AICARFT [1] = target: T1, AICARFT (Homo sapiens, UniProt P31939); experiment: MS detection of ZMP in low folate media cultured NCI-H460 cells; format: cell-based; design: endogenous in cells; host or cells: NCI-H460; settings: low levels of folate in the media; summary of Table 16
T1 sequence (P31939 whole entry): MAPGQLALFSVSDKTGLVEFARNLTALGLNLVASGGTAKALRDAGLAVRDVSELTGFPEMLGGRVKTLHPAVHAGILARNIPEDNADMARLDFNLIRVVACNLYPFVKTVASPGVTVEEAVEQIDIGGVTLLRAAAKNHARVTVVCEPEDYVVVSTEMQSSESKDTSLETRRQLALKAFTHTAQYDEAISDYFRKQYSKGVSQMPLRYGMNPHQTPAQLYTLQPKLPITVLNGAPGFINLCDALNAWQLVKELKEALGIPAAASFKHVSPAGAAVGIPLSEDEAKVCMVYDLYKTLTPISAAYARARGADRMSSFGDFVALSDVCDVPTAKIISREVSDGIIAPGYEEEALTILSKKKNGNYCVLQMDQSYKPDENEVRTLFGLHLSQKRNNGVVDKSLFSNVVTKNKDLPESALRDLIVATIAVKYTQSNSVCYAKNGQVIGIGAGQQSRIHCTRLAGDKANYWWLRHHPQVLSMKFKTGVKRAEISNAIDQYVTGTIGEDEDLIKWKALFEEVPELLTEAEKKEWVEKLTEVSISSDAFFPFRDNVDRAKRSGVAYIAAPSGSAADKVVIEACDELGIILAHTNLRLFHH
Protocol: Grow NCI-H460 cells in complete high folate RPMI media (ATCC #30-2001) until cellular confluence reaches ˜80%. Wash cells with PBS, trypsinize, resuspend cells in complete low folate RPMI media (Gibco #27016-021) and perform a cell count. Transfer 1.25×10^6 cells to a T225 flask containing complete low folate RPMI media (40 mL). Grow for seven days. Split cells again with complete low folate media if confluence surpasses 80%. Wash cells with PBS, trypsinize, resuspend cells in complete low folate RPMI media, and perform a cell count. Aliquot 10×10^6 cells in complete low folate media (1 mL)+5% DMSO per cryovial. Use a cell freezing apparatus to freeze cells in a slow and controlled manner in a −80° C. freezer. The next day, transfer cells to liquid nitrogen for long term storage. Thaw frozen cells from cryovial in 37° C. water bath, wash cells once with low folate assay medium: folate free RPMI 1640 medium (Gibco, #27016-021), Glucose (Sigma, #G5767), Hepes (Hyclone, #SH30237.01), Na Pyruvate (Hyclone, #Sh30239.01), 10% FBS (Hyclone, #SH30070.03). Adjust cells concentration to 250,000 cells/mL with medium, plate cells by adding 100 μl/well (25,000 cells/well) into Biocoat poly-D-lysine 96-well plate (BD, #35-4640), and incubate at 37° C. overnight with 5% CO2. Treat cells with 20 μl/well compound diluted in media containing 3% DMSO. Incubate at 37° C. for 16 hours with 5% CO2, then remove the medium and add 1× SureFire Lysis Buffer (50 μL) (PerkinElem, SureFire® Kit component) to each well and incubate at room temperature for 10 min with gentle shaking.
Cells grown in a 96-well plate have the media removed and are lysed in AlphaScreen® SureFire® lysis buffer. Standard curves containing ZMP, dUMP and AICAr at concentrations of 5-10,000 ng/mL are prepared in 40 mM ammonium acetate, pH 4. Aliquots (40 μL) of each standard or sample are combined in a deep 96-well plate with 160 μL of internal standard solution containing ^13C5-ZMP (custom synthesis) and ^13C5-AICAr (custom synthesis) at 100 ng/mL in 40 mM ammonium acetate, pH 4. A Beckman Biomek FX liquid handler is used to add 400 μL of DCM to each sample. Samples are sealed, vortexed for 5 minutes, and placed in the refrigerator for at least 30 minutes. The samples are centrifuged for 10 minutes at 4,000 rpm and 4° C. using an Eppendorf 5810R centrifuge, and the Biomek liquid handler is used to transfer 75 μL of the aqueous layer into a clean 96-well plate. The plates are sealed prior to analysis.
The LC-MS method utilizes a Shimadzu Prominence 20A HPLC system connected to an AB Sciex 5500™ or an AB Sciex 6500™ triple quadrupole mass spectrometer running Analyst® 2.1 software. Extracted samples are separated using a Thermo Hypercarb™ Javelin guard column (2.1×20 mm, […]) with an injection volume of 15 μL and a flow rate of 1 mL/minute. Mobile phase A is a 95:5 mixture of 50 mM ammonium formate, pH 4 and ACN. Mobile phase B is a 70:30 mixture of ACN and MeOH spiked with 0.3% formic acid and 2% concentrated ammonium hydroxide solution (v/v). The gradient is as follows: 0 minutes, 0% B; 0.25 minutes, 0% B; 2.00 minutes, 30% B; 2.01 minutes, 95% B; 3.50 minutes, 95% B, 3.51 minutes, 0% B, 5.00 minutes, stop.
The mass spectrometer is operated in positive ion TurboIonSpray® multiple reaction monitoring mode with a source temperature of 700° C. The precursor and fragment ions for each analyte are: ZMP (339→110), ^13C5-ZMP (344→110), dUMP (309→81), AICAr (259→127) and ^13C5-AICAr (264→127). Calibration curves are constructed by plotting analyte concentrations vs. analyte/internal standard peak area ratios and performing a linear fit of the data using a 1/concentration weighting with AB Sciex MultiQuant™ 2.1 software. Back-calculated ZMP concentrations are fit to a four-parameter logistic equation using ACTIVITYBASE 4.0 to determine IC50 values.

AICARFT [2] = target: T1, AICARFT; experiment: AICARFT enzyme assay (LC-MS of IMP and ZMP); format: biochemical; design: made in house; host or cells: E. coli BL21(DE3); settings: summary of Table 15
Protocol: Human AICARFT (NCBI accession number: NM_004044.6) cDNA is purchased from Openbiosystem Co. (Cat# MHS1011-62310, Clone ID: 4300570, accession: BC008879). The nucleotide sequence encoding full-length human AICARFT is inserted into pET21d (Novagen) vector with an N-terminal HIS tag. Bacterial BL21(DE3) (Novagen) is used as an expression host, and the induction of protein expression is carried out in 2×TY media with 1 mM IPTG at 18° C. overnight. Cell pellets are stored at −80° C. for subsequent protein purification. Protein purification is conducted at 4° C. Frozen cell pellets are lysed by incubation with stirring in 50 mL cold lysis buffer (50 mM Tris-HCl, pH 7.5, 300 mM NaCl, 10% glycerol, 0.1% Triton X-100, 0.5 mg/mL lysozyme, 5 U/mL benzonase, 1 mM DTT, 10 mM imidazole, and Roche complete EDTA-free protease inhibitor) per liter cell pellet and sonication. Cell lysates are clarified by centrifugation in a Bechman JA-18 rotor for 45 min at 16,500 rpm. The supernatant is incubated with Ni-NTA agarose resin (Qiagen) for 3 hours, followed by an initial batch wash with 10 resin volume of buffer A (50 mM Tris-HCl, pH 7.5, 300 mM NaCl, 10% glycerol, 1 mM DTT, 10 mM imidazole) containing 0.1% Triton X-100. The resin is then packed onto a column and washed with buffer A. The HIS-tagged AICARFT protein is eluted with 10-500 mM imidazole gradient in buffer A. Pooled HIS-AICARFT containing fractions are concentrated, loaded onto a HiLoad 26/600 Superdex 200 column (GE Healthcare Biosciences), and eluted with storage buffer (50 mM Tris-HCl, pH7.5, 150 mM NaCl, 1 mM DTT, 10% Glycerol). Fractions containing HIS-AICARFT are pooled and protein concentration determined by the Bradford assay using BSA as standard. The protein is aliquoted and stored at −80° C.
One of the substrates of the enzyme reaction, 10-formyltetrahydrofolate (10-F-THFA), has limited chemical stability and is therefore synthesized on the same day that the ATIC enzyme assay is performed. The general synthetic route is described in P. Rowe, Methods Enzymol., 18, 733-735, (1971) and J. Rabinowitz, Methods Enzymol., 6, 814-815, (1963). The first step in this synthesis is the conversion of folinic acid (Sigma CAS 1492-18-8) to 5,10-methenyltetrahydrofolic acid (5,10-M-THFA). This conversion typically takes place the day before the enzyme assay is performed, but can be performed up to 1 week earlier and stored at room temperature. To folinic acid (81.6 mg) is added β-mercaptoethanol (2 mL), and 37% concentrated HCl (80 μL), is added. This reaction incubates a minimum of 3 hours at room temperature, with occasional mixing. The color changes from clear to yellow visually, and the complete conversion of folinic acid to 5,10-M-THFA is monitored by spectral analysis using a quartz cuvette. The UV absorption will change from 266 nm to 356 nm during this step. […] On the morning of the assay, the 80 mM 5,10-M-THFA is diluted to 1.6 mM in 40 μM ammonium bicarbonate (made fresh that day). This reaction incubates 3-5 hours at room temperature. The color changes from yellow to clear visually, and the conversion of 5,10-M-THFA to 10-F-THFA is monitored by spectral analysis using a quartz cuvette. The UV absorption will change from 356 nm to 258 nm during this step. […] Test compounds are prepared in DMSO to make a 10 mM stock solution. The stock solution is serially diluted 3-fold in DMSO to obtain a ten-point dilution curve with final compound concentrations ranging from 100 μM to 5 nM. The final DMSO concentration in the assay is 5%.
To each well of a 384-well polypropylene assay plate (NUNC 264573), […] of DMSO (control wells) or compound in DMSO and 9 μL of 55.56 μM ZMP (Sigma-Aldrich CAS 3031-94-5) in water are added. Then, 10 μL of 200 μM 10-F-THFA and 6 nM ATIC enzyme in 40 μM ammonium bicarbonate is added. […] The assay is incubated for 1 hour at room temperature, after which 40 μL of ACN is added to stop the reaction.

AICARFT inhibition in low folate media assay (in words) (AICARFT [1]): still inhibit AICARFT
AICARFT inhibition in enzyme assay (in words) (AICARFT [2]): inhibit AICARFT
Compound: O=c1[nH]ccc2cc(F)c(NS(=O)(=O)c3ccc(N4CC[C@H](O)C4)s3)cc12 [Example 8, N-(6-Fluoro-1-oxo-1,2-dihydroisoquinolin-7-yl)-5-[(3S)-3-hydroxypyrrolidin-1-yl]thiophene-2-sulfonamide]
